Test results as given in patent US20230116703A1, “NOVEL ERGOLINES AND METHODS OF TREATING MOOD DISORDERS” (priority 2021, published 2023).
Read-outs that look alike come from different tables or passages of the source.

Experiments:
[1] = Metabolic stability in rat liver microsomes (RLM); details: for t1/2: RLM, 0.50 mg protein per mL; for microsomal CLint at 1 μM: both, rat, pooled rat liver microsomes, pH 7.4
5-HT1B receptor = 5-HT1B receptor (Homo sapiens, UniProt P28222); assay: cAMP accumulation agonist assay at 5-HT1B; assay type: cell-based; details: cAMP, agonist; for EC50: read-out: 5-HT1B EC50
How it was run: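 Agonism was measured by cAMP accumulation in stably transfected cells incubated 60 min at RT. A detection reagent was then added for 60 min at RT before reading, with an 800 nM cAMP standard in blank wells.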

Alpha2A receptor = molecular target: T1, Alpha2A receptor (Homo sapiens, UniProt P08913); assay: FLIPR Ca^2+ flux agonist assay at Alpha2A; assay type: cell-based
T1 sequence (P08913 1-465): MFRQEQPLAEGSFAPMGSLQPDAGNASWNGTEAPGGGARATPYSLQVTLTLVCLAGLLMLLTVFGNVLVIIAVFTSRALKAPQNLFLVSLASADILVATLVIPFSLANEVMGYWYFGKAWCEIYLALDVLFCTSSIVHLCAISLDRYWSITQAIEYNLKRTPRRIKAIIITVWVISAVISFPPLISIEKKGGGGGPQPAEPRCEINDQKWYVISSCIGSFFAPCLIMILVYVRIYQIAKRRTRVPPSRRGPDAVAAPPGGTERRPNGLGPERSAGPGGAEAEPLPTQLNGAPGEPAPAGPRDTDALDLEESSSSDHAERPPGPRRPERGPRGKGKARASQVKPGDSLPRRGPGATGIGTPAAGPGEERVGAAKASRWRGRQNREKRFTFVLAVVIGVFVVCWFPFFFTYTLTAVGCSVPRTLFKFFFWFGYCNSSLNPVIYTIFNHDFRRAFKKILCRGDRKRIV
Method: Functional Assays at Adrenergic and Dopamine Receptors. Agonist activity at Alpha1A, Alpha2A, D1, and D2 receptors was determined using a FLIPR Ca^2+ flux assay at WuXi AppTec (Hong Kong) Limited according to their standard protocols. Briefly, stably transfected cells expressing the receptor of interest were grown and plated in a 384 well plate and incubated at 37° C. and 5% CO2 overnight. A solution of 250 mM probenecid in 1 mL FLIPR assay buffer was prepared fresh. This was combined with a fluorescent dye (Fluo-4 Direct™) to make a final assay concentration of 2.5 mM. […] The fluorescent dye was then added to the assay plate along with assay buffer to a final volume of 40 μL. The cell plate was incubated for 50 min at 37° C. and 5% CO2 and placed into the FLIPR Tetra along with the compound plate. 10 μL of references and compounds were then transferred from the compound plate into the cell plate and the fluorescent signal was read.

human 5-HT2C receptor = molecular target: T2, human 5-HT2C receptor (Homo sapiens, UniProt P28335); assay: cell-based; details: Ca^2+ flux, agonist
T2 sequence (P28335 33-458): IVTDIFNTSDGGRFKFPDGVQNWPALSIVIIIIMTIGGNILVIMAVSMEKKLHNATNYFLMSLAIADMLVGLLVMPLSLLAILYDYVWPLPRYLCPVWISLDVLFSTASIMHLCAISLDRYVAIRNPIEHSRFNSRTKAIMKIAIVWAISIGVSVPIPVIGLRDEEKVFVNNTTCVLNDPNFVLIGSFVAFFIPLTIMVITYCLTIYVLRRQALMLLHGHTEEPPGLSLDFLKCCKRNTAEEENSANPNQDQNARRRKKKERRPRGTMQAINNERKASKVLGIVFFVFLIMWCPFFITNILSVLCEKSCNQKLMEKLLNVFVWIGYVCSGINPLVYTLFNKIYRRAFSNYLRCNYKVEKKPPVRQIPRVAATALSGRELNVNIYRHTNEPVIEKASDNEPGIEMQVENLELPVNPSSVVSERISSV

[2] = Metabolic stability in human liver microsomes (HLM); assay type: in vitro ADME; details: for t1/2: 1 μM, 0.50 mg protein per mL; for microsomal CLint at 1 μM: both sexes, human, pooled human liver microsomes, pH 7.4, 0.50 mg protein per mL
Description: HLM Stability. Pooled HLM from adult male and female donors (Corning 452117) were used.

[3] = Ca^2+ flux, agonist, read-out: Alpha 2A EC50

Sequence of 5-HT1B receptor (P28222 whole entry): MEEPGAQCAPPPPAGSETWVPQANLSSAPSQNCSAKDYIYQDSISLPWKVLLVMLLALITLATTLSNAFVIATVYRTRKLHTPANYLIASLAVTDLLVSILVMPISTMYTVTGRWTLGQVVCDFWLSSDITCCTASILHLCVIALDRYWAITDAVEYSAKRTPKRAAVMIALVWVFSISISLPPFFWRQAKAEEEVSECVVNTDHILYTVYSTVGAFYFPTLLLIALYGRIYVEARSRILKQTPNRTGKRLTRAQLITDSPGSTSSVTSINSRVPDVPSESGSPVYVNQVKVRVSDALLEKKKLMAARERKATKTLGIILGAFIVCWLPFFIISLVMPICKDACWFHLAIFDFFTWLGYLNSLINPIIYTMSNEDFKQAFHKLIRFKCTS

Compound	t1/2 [1]	microsomal CLint at 1 μM [1]	EC50 (5-HT1B receptor)	EC50 (Alpha2A receptor)	EC50 (human 5-HT2C receptor)	t1/2 [2]	microsomal CLint at 1 μM [2]	EC50 (Alpha2A receptor; [3])	5-HT1B % Act @ Max Dose (5-HT1B receptor)
CCCN1C[C@H](C(=O)N(CC)CC)C=C2c3cccc4[nH]cc(c34)C[C@H]21 [Compound 1, (6aR,9R)—N,N-diethyl-7-propyl-4,6,6a,7,8,9-hexahydroindolo[4,3-fg]quinoline-9-carboxamide]	16.2 min	85.4 µL/min/mg	0.00382 µM	0.0422 µM	0.0119 µM	15.1 min	91.6 µL/min/mg	–	–
CCCN1C[C@H](C(=O)N[C@H](C)CC)C=C2c3cccc4[nH]cc(c34)C[C@H]21 [Compound 3, (6aR,9R)—N—((R)-sec-butyl)-7-propyl-4,6,6a,7,8,9-hexahydroindolo[4,3-fg]quinoline-9-carboxamide]	4.4 min	318 µL/min/mg	0.0688 µM	3.64 µM	0.000822 µM	4.2 min	331 µL/min/mg	–	–
CCCN1C[C@H](C(=O)NC(CC)CC)C=C2c3cccc4[nH]cc(c34)C[C@H]21 [Compound 6, (6aR,9R)—N-(pentan-3-yl)-7-propyl-4,6,6a,7,8,9-hexahydroindolo[4,3-fg]quinoline-9-carboxamide]	1.655 min	837 µL/min/mg	0.201 µM	–	0.00618 µM	1.607 min	862 µL/min/mg	–	–
CCN(CC)C(=O)[C@@H]1C=C2c3cccc4[nH]cc(c34)C[C@H]2N(CCc2ccccc2OC)C1 [Compound 11, (6aR,9R)—N,N-diethyl-7-(2-methoxyphenethyl)-4,6,6a,7,8,9-hexahydroindolo[4,3-fg]quinoline-9-carboxamide]	1.159 min	1200 µL/min/mg	0.448 µM	–	0.0745 µM	2.372 min	584 µL/min/mg	> 31.6 µM	–
CCCN1C[C@H](C(=O)N2[C@@H](C)C[C@@H]2C)C=C2c3cccc4[nH]cc(c34)C[C@H]21 [Compound 4, ((2S,4S)-2,4-dimethylazetidin-1-yl)((6aR,9R)-7-propyl-4,6,6a,7,8,9-hexahydroindolo[4,3-fg]quinolin-9-yl)methanone]	12.8 min	108 µL/min/mg	0.0976 µM	1.08 µM	0.0056 µM	10.6 min	130 µL/min/mg	–	96%
CCN(CC)C(=O)[C@@H]1C=C2c3cccc4[nH]cc(c34)C[C@H]2N(Cc2ccccc2OC)C1 [Compound 10, (6aR,9R)—N,N-diethyl-7-(2-methoxybenzyl)-4,6,6a,7,8,9-hexahydroindolo[4,3-fg]quinoline-9-carboxamide]	3.4 min	407 µL/min/mg	3.19 µM	–	> 10 µM	7.3 min	190 µL/min/mg	> 31.6 µM	–
CCN(CC)C(=O)[C@@H]1C=C2c3cccc4[nH]cc(c34)C[C@H]2N(CCCF)C1 [Compound 2, (6aR,9R)—N,N-diethyl-7-(3-fluoropropyl)-4,6,6a,7,8,9-hexahydroindolo[4,3-fg]quinoline-9-carboxamide]	11.972 min	116 µL/min/mg	0.193 µM	1 µM	0.00435 µM	19.061 min	72.7 µL/min/mg	–	–
